Source: PMC7731220, “Pharmacophore Modeling and 3D-QSAR Study of Indole and Isatin Derivatives as Antiamyloidogenic Agents Targeting Alzheimer’s Disease” (Molecules, 2020)
Read-outs that look alike come from different tables or passages of the source.

Assays:
Aβ40 [1] = molecular target: T1, Aβ40 (Homo sapiens, UniProt P05067); experiment: Inhibition of Aβ40 self-aggregation (thioflavin T fluorescence, 2% HFIP); conditions: for inhibition at 100 µM: read-out: Aβ40 Aggregation Inhibition % at 100 μM
T1 sequence (P05067 672-711 limits assumed): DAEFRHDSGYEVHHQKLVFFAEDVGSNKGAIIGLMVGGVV
Procedure: All the newly prepared compounds were tested in a routine in vitro assay of inhibition of Aβ40 self-aggregation [25].
(§1) All assays were performed in 96-well plates (Greiner Bio-One, Kremsmünster, Austria) using an Infinite M1000 Pro plate reader (Tecan, Cernusco s.N., Italy). Inhibition data were obtained as mean ± SD (for single concentration points) or mean ± SEM from three independent experiments (for IC50s), using Prism (GraphPad Prism version 5.00 for Windows, GraphPad Software, San Diego, CA, USA).
Assay of aggregation of Aβ40 (EzBiolab, Carmel, IN, USA) was performed as described [25], using 2% of 1,1,1,3,3,3-hexafluoro-2-propanol as aggregation enhancer and spectrofluorimetric detection of thioflavin T fluorescence as the probe of amyloid aggregation.

tau protein = molecular target: T2, tau protein (Homo sapiens, UniProt P10636); experiment: Tau aggregation inhibition assay in bacterial cells (thioflavin S fluorescence); format: cell-based, Escherichia coli BL21 (DE3); conditions: for inhibition at 10 µM: cell-based assay
T2 construct: inclusions bodies (IBs) formed by tau full-length protein in bacteria; expressed in transfected cells; host or cells: Escherichia coli BL21 (DE3), plasmids pTARA and pRKT42
T2 sequence (P10636 other isoform, or with tags, fused parts or gaps): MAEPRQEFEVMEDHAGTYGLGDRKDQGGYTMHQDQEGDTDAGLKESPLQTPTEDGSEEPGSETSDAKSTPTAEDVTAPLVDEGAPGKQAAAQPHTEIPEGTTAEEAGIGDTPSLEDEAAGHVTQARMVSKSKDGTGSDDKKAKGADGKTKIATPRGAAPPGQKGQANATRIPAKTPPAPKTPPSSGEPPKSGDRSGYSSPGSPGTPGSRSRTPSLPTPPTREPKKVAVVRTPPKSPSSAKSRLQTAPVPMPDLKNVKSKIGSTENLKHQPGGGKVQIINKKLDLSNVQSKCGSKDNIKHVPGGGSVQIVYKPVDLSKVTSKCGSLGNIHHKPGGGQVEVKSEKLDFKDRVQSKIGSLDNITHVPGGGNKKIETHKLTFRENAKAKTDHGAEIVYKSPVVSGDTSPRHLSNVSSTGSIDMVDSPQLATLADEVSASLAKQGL
From the text: The deposition of aggregates of hyperphosphorylated tau protein constitutes the intracellular neurofibrillary tangles, a major histological evidence of AD. The role of tau hyperphosphorylation and aggregation in AD has established both of them as a target for therapeutic intervention, although only N,N,N′,N′-tetramethyl-10H-phenothiazine-3,7-diaminium (TRX0237, leucomethyl-thioninium), the reduced form of methylene blue dye, acting as an inhibitor of tau aggregation, has reached the clinical phase III [26]. In recent years, some of us developed an efficient cell-based assay of tau aggregation, a simple and inexpensive method that provides a straightforward assay to evaluate the putative anti-aggregation capacity of small molecules. This method relies on the use of bacteria overexpressing amyloid-prone proteins to monitor the amyloid aggregation, thus constituting a physiologically relevant model. In particular, it exploits amyloid properties of the inclusions bodies (IBs) formed by tau full-length protein in bacteria stained by thioflavin S (ThS), a specific amyloid dye, to address the bacterial amyloid aggregation and the effect of anti-amyloid compounds in this polymerization process.
Escherichia coli competent cells BL21 (DE3) were transformed with pTARA containing the RNA-polymerase gen of T7 phage (T7RP) under the control of the promoter PBAD and pRKT42 vector encoding four repeats of tau protein in two inserts. Because of the addition of the initiation codon ATG in front of gene, the over-expressed protein contains an additional methionine residue at its N terminus. Tau anti-aggregating activities of the target compounds were assessed in E. coli cells, as previously described. M9 minimal medium (10 mL) containing 0.5% of glucose, 100 μg/mL of ampicillin and 12.5 μg/mL of chloramphenicol was inoculated with a colony of BL21 (DE3) cells bearing the plasmids. To fresh M9 minimal medium containing 0.5% of glucose, 50 μg/mL of ampicillin, 12.5 μg/mL of chloramphenicol, and 250 µM of ThS, the volume of overnight culture necessary to get a 1:500 dilution was added. The cultures were grown at 37 °C and 250 rpm overnight until cell density reached OD600 = 0.6. A volume of 980 μL of the cultures was transferred into 1.5 mL Eppendorf tubes that contained 10 μL of a solution of the target compound in DMSO and 10 μL of arabinose at 25%, leading to a final inhibitor concentration of 10 μM. The resulting cultures were grown at 37 °C and 1400 rpm with a Thermomixer (Eppendorf, Hamburg, Germany) overnight. The same amount of DMSO without the target compound was added to the sample as a negative control (maximal amount of tau), whereas non-induced samples (in the absence of arabinose) were prepared as positive controls (absence of tau), and to assess the potential intrinsic toxicity of the target compounds. In addition, the absorbance at 600 nm of these samples was assessed to confirm the correct bacterial growth, discarding potential intrinsic toxicity of compounds. To determine the IC50 values, the same protocol was followed but only modifying the initial concentration of compounds. In order to use different final concentrations of compound, we performed a dilutions banc from a stock solution of 100 mM in […].
ThS fluorescence and absorbance were tracked using a DTX 800 plate reader Multimode Detector equipped with a Multimode Analysis Software (Beckman-Coulter, Indianapolis, IN, USA). Filters of 430/35 and 485/20 nm were used for the excitation and emission wavelengths, respectively. 535/25 nm filters were also used for the absorbance determination. It should be stressed that ThS fluorescence normalization was carried out considering as 100% the ThS fluorescence of the bacterial cells expressing tau in the absence of compounds and 0% the ThS fluorescence of the bacterial cells non-expressing tau.

human recombinant AChE = molecular target: T3, human recombinant AChE (Homo sapiens, UniProt P22303); experiment: biochemical; conditions: for inhibition at 10 µM: read-out: hAChE % Inhib. at 10 μM; for IC50: read-out: hAChE IC50
T3 construct: purchased Sigma Aldrich
T3 sequence (P22303 32-614): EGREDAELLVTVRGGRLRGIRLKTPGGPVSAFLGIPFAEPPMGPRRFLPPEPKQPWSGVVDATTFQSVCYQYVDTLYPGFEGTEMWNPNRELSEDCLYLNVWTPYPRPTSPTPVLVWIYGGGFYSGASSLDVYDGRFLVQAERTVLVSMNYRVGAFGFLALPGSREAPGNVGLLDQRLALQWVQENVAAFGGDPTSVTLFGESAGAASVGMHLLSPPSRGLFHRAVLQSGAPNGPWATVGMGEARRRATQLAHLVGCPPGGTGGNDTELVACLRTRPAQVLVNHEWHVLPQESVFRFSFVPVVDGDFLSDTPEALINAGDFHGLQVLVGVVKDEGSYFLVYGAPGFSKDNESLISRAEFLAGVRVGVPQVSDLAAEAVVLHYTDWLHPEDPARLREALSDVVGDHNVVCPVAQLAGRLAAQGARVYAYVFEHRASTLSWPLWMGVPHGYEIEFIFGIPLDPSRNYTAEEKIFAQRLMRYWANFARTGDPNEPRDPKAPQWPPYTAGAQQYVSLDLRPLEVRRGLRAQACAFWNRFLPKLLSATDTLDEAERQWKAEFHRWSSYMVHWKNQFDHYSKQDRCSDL
Procedure: as §1

[2] = molecular target: T4, human recombinant monoamine oxidase A (Homo sapiens, UniProt P21397); experiment: Inhibition of monoamine oxidase A (kynuramine); format: biochemical; conditions: for inhibition at 10 µM: read-out: hMAO A % Inhib. at 10 μM
T4 construct: purchased Sigma Aldrich; host or cells: baculovirus infected insect cells (microsomes)
T4 sequence (P21397 1-527): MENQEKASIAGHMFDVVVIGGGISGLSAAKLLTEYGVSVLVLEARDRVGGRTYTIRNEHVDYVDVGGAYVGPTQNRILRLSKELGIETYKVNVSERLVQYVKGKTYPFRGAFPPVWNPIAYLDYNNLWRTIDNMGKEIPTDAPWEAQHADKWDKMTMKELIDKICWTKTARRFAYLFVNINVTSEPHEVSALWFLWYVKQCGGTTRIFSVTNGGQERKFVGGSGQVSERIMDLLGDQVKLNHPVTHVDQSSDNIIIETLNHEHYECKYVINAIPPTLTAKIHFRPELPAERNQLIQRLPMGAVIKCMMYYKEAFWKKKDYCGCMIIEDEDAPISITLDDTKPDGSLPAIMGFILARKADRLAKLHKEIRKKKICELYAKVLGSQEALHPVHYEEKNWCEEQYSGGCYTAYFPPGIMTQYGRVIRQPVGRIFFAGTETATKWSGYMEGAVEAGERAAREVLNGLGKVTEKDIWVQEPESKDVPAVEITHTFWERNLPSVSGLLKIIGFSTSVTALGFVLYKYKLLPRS
Procedure: as §1
(§2) Inhibition of human recombinant monoamine oxidases A (250 U/mg) and B (59 U/mg; microsomes from baculovirus infected insect cells; Sigma Aldrich) was determined as already described [48], measuring the fluorescence of 4-hydroxyquinoline produced by the oxidative deamination of substrate kynuramine.

[3] = molecular target: T5, human recombinant monoamine oxidase B (Homo sapiens, UniProt P27338); experiment: Inhibition of monoamine oxidase B (kynuramine); format: biochemical; conditions: for IC50: read-out: hMAO B IC50; for inhibition at 10 µM: read-out: hMAO B % Inhib. at 10 μM
T5 construct: purchased Sigma Aldrich; host or cells: baculovirus infected insect cells (microsomes)
T5 sequence (P27338 1-520): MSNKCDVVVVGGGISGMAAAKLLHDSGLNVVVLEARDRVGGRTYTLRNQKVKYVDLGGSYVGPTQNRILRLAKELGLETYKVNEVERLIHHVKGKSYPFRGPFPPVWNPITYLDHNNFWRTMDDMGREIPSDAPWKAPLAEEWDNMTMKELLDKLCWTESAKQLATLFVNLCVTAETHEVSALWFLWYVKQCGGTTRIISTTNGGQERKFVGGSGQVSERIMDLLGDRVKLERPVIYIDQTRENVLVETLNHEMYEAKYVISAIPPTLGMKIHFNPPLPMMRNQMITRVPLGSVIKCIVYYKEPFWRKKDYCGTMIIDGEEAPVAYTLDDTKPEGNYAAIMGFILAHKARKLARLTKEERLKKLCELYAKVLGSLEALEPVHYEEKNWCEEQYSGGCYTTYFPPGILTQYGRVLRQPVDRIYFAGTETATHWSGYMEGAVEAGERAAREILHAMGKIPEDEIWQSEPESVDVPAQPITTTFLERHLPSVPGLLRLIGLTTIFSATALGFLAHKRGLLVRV
Procedure: as §1, §2

Aβ40 [4] = molecular target: T1, Aβ40; conditions: cited from earlier work

N/N=C1\C(=O)Nc2ccc([N+](=O)[O-])cc21 [Compound 3, (Z)-3-Hydrazineylidene-5-nitroindolin-2-one]
melting point: 217 to 219 °C
inhibition at 100 µM (Aβ40 [1]): 11 ± 3%

O=C1Nc2ccccc2C1=NN=C1C(=O)Nc2ccccc21 [Compound 4]
inhibition at 10 µM (tau protein): 17 ± 2%
inhibition at 100 µM (Aβ40 [1]): 31 ± 3%

O=C1Nc2ccccc2C1=NNc1ccccc1 [Compound 5, isatin 3-phenylhydrazone]
IC50 (tau protein): 4.6 ± 0.7 µM
inhibition at 10 µM (human recombinant AChE): 37 ± 1%
selectivity for MAO A over MAO B ([2]; MAO A over MAO B): 7 fold
IC50 ([2]; read-out: hMAO A IC50): 0.52 ± 0.04 µM
IC50 [3]: 3.6 ± 0.7 µM
IC50 (Aβ40 [1]): 22 ± 2 µM

O=C1Nc2ccccc2C1=NNc1cccc(OCc2ccccc2)c1 [Compound 6, 3-(2-(3-(Benzyloxy)phenyl)hydrazineylidene)indolin-2-one]
inhibition at 10 µM (tau protein): 14 ± 2%
IC50 (human recombinant AChE): 4.2 ± 0.8 µM
inhibition at 10 µM [2]: 23 ± 5%
inhibition at 10 µM [3]: 22 ± 4%
inhibition at 100 µM (Aβ40 [1]): 45 ± 6%

CN1C(=O)C(=NNc2cccc(OCc3ccccc3)c2)c2ccccc21 [Compound 7, 3-(2-(3-(Benzyloxy)phenyl)hydrazineylidene)-1-methylindolin-2-one]
inhibition at 10 µM (tau protein): 19 ± 2%
inhibition at 10 µM (human recombinant AChE): 48 ± 3%
inhibition at 10 µM [2]: 29 ± 3%
inhibition at 10 µM [3]: 41 ± 1%
IC50 (Aβ40 [1]): 2 ± 0.3 µM

O=C1Nc2ccccc2C1=NNc1ccc(OCc2ccccc2)cc1 [Compound 8, 3-(2-(4-(Benzyloxy)phenyl)hydrazineylidene)indolin-2-one]
inhibition at 10 µM (tau protein): 35 ± 2%
IC50 (human recombinant AChE): 3.9 ± 0.5 µM
inhibition at 10 µM [2]: 8 ± 3%
inhibition at 10 µM [3]: 36 ± 4%
inhibition at 100 µM (Aβ40 [1]): 69 ± 3%

CN1C(=O)C(=NNc2ccc(OCc3ccccc3)cc2)c2ccccc21 [Compound 9, 3-(2-(4-(Benzyloxy)phenyl)hydrazineylidene)-1-methylindolin-2-one]
inhibition at 10 µM (tau protein): 20 ± 2%
inhibition at 10 µM (human recombinant AChE): 48 ± 2%
inhibition at 10 µM [2]: 15 ± 3%
IC50 [3]: 4 ± 0.4 µM
IC50 (Aβ40 [1]): 0.95 ± 0.04 µM

COc1ccc2c(c1)C(=NNC(=O)c1ccccc1)C(=O)N2 [Compound 26, N′-(5-Methoxy-2-oxoindolin-3-ylidene)benzhydrazide]
melting point: > 250 °C
inhibition at 100 µM (Aβ40 [1]): 12 ± 5%

O=C1C(=Cc2ccc(O)cc2)Nc2ccccc21 [Compound 27, 2-(4-Hydroxybenzylidene)indolin-3-one]
melting point: > 250 °C
inhibition at 100 µM (Aβ40 [1]): 69 ± 1%

CC(C)c1ccc(NN=C2NC(=O)c3ccccc32)cc1 [Compound 38, 3-(2-(4-Isopropylphenyl)hydrazineylidene)isoindolin-1-one]
melting point: 186 to 187 °C
inhibition at 100 µM (Aβ40 [1]): 49 ± 5%

O=C1C(c2c(O)nc3ccccc3c2O)=Nc2ccccc21 [Compound 43, 2-(2,4-Dihydroxyquinolin-3-yl)-3H-indol-3-one]
melting point: 90 to 92 °C
inhibition at 100 µM (Aβ40 [1]): 17 ± 3%

O=C1Nc2ccc([N+](=O)[O-])cc2/C1=N/Nc1ccccc1 [Compound S22]
inhibition at 10 µM (tau protein): 15 ± 3%
Aβ40 Inhibition % at 100 μM (Aβ40 [4]; Table 5, symbol): -^c (No inhibition at 100 μM concentration)
% inhib. @ 100 µM (Aβ40 [4]; supplement, training set, 100 µM): -2±7%

COc1ccc2c(c1)/C(=N/Nc1ccccc1)C(=O)N2 [Compound S23]
IC50 (tau protein): 7.7 ± 1 µM
Aβ40 Inhibition % at 100 μM (Aβ40 [4]; Table 5): 52%

COc1ccc2c(c1)/C(=N/Nc1ccc(OCc3ccccc3)cc1)C(=O)N2 [Compound S34]
inhibition at 10 µM (tau protein): 16 ± 2%
Aβ40 Inhibition % at 100 μM (Aβ40 [4]; Table 5): 20%

COc1ccc2c(c1)/C(=N/Nc1cccc(OCc3ccccc3)c1)C(=O)N2 [Compound S35]
IC50 (tau protein): 10 ± 2 µM
Aβ40 Inhibition % at 100 μM (Aβ40 [4]; Table 5): 44%
